{"source": "paper PMC10667816", "about": "“A Cell‐Penetrant Peptide Disrupting the Transcription Factor CP2c Complexes Induces Cancer‐Specific Synthetic Lethality” (Advanced Science, 2023)", "key": {"[1]": {"assay": "In vivo metabolic stability test by live imaging", "design": "species or system mouse", "details": "Hep3B CDX Balb/c nude mice, intravenous Cy5‐ACP52C 17 mg kg^−1, live imaging fluorescence over 24 h", "excerpt": "(1 picture or pasted object on this page, not shown here)\nScale bar represents 10 μm."}, "[2]": {"system": "hepatocellular carcinoma and breast cancer patient‐derived cancer cells", "assay": "Sensitivity of patient‐derived cancer cells", "assay_type": "cell-based, human", "details": "preliminary data", "protocol": "For primary cell culture, tumor tissue samples obtained from patients undergoing surgery were finely minced, washed with phosphate buffered saline (PBS) containing penicillin/streptomycin, and then treated with trypsin solution at 37 °C for up to 20 min. The resulting cell suspension was filtered through a strainer (BD Falcon, 352235). The filtered cells were maintained in EpiX media, which consists of keratinocyte serum free medium (KSFM; Gibco, 17005042) supplemented with 50 µg mL^−1 bovine pituitary extract (Gibco, 13028014), 5 ng mL^−1 human epidermal growth factor (EGF; Thermo Fisher, PHG0311L), 1 µM TGF beta inhibitor (A83‐01; Sigma–Aldrich, SML0788), 5 µM ROCK inhibitor (Y27632; Sigma–Aldrich, Y0503), and 3 µM isoproterenol (Sigma–Aldrich, I6504). The culture medium was refreshed daily. For organoid culture, portions of human tissue samples were separated and transported to the laboratory on ice within 1 h of removal from the patients in cold Hank's balanced salt solution (HBSS) with antibiotics. […]"}, "CP2c complexes": {"target": "CP2c complexes (Homo sapiens, UniProt Q12800)", "sequence (Q12800 whole entry, one chain of several)": "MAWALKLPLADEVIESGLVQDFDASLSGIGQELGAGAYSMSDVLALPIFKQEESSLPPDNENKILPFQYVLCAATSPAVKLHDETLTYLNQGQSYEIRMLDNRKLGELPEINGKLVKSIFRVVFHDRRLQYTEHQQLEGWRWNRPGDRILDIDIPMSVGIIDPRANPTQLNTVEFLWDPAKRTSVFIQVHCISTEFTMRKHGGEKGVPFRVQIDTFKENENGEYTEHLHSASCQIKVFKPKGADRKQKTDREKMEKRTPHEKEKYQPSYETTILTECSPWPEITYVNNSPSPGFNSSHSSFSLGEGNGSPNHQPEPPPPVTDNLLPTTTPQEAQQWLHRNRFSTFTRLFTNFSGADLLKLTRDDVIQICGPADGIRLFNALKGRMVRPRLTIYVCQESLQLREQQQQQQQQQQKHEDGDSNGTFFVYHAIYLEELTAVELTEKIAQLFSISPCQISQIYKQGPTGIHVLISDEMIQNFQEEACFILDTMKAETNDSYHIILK", "assay": "In vitro IP and pulldown assays of CP2c complexes", "assay_type": "biochemical", "details": "regardless of the presence of probe DNA", "protocol": "Cells were lysed with lysis buffer (50 mM Tris‐HCl, pH 7.4, 150 mM NaCl, 1 mM EDTA, 0.1% triton X‐100, and 1 mM PMSF) with freshly added 1 mM DTT and a protease inhibitor cocktail. Input samples (10% of whole lysate) were saved from each lysate for WB analysis. For immunoprecipitation, precleared extracts were incubated overnight at 4 °C with 10 µL Protein A/G agarose beads, pre‐incubated with 2 µg of the primary antibodies (Table S4, Supporting Information). The immune complexes were washed 3 times with lysis buffer, and bound proteins were eluted with 2X bed volume of 0.2 M glycine buffer, followed by neutralization with an equal volume of 1 M Tris‐HCl, pH 8.0. For Flag tag immunoprecipitation, precleared extracts were incubated with 2 µL of Flag‐M2 beads (Sigma–Aldrich, A2220) by rotating overnight at 4 °C. The immune complexes were washed 3 times with lysis buffer, bound proteins were eluted with 100 µg mL^−1 Flag peptide (Sigma–Aldrich, F4799). Precipitated proteins were analyzed using western blot.\nBiotinylated‐DNA fragments or ‐peptides and GST‐fused CP2c, whole‐ or nuclear‐ extracts of MDA‐MB‐231 cells were used for the analyze the interaction of peptide or DNA with CP2c. Nuclear extracts were extracted by the method described elsewhere.^[ [14] ^] […] The radioactivity of the eluted probe was measured by scintillation counting. […]"}}, "note": "Where a SMILES comes first, the peptide text is derived from it.", "data": [{"smiles": "CC(=O)N[C@@H](CC(N)=O)C(=O)N[C@@H](Cc1ccc(O)cc1)C(=O)N1CCC[C@H]1C(=O)N[C@@H](CCC(N)=O)C(=O)N[C@@H](CCCNC(=N)N)C(=O)N1CCC[C@H]1C(=O)N[C@@H](CS)C(=O)N[C@@H](CCCNC(=N)N)C(=O)NCC(=O)N[C@@H](CC(=O)O)C(=O)N[C@@H](CCCCN)C(=O)NCC(=O)N1CCC[C@H]1C(=O)N[C@@H](CC(=O)O)C(=O)N[C@@H](CS)C(N)=O", "note": "[ACP52C] (Ac-NYPQRPCRGDKGPDC-NH2)", "values": [{"measurement": "systemic metabolic stability in vivo (RL50, time for 50% retention of fluorescence)", "setting": "[1]", "result": "≈ 7.8 h"}, {"measurement": "fraction of patient‐derived cancer cells showing sensitivity", "setting": "[2]", "result": "over 85%"}]}, {"smiles": "CCOc1ccccc1C1CC(=O)Nc2cc3c(cc21)OCO3", "note": "(stereo not drawn) [FQI1, Factor Quinolinone Inhibitor 1, reference compound]", "values": [{"measurement": "dissociation of CP2c complexes", "setting": "CP2c complexes", "result": "only slight perturbation of CP2c complexes"}]}]}
